Measurements published in patent US20230114728A1 (Venatorx Pharmaceuticals, Inc., priority 2019, published 2023).
≈ marks a conversion by molar mass, not a printed value.

How the values were obtained:
Experiment in all cases: Broth microdilution MIC in CAMHB
Format in all cases: cell-based
E. coli 901C = details: Escherichia coli; E. coli 901C (hyper-permeable); MHB; read-out: Minimum Inhibitory Concentration, E. coli 901C
How it was run: (§1)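 Colonies from cation-adjusted Mueller Hinton agar are grown in broth (3-5 h, 37° C), adjusted by OD600, and added at 2-8×10^5 CFU/mL to 2-fold compound dilutions. After 16-20 h at 37° C, the lowest concentration without growth is taken as MIC.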

E. coli AG100 = details: Escherichia coli; E. coli AG100 (wild-type parent); MHB; read-out: Minimum Inhibitory Concentration, E. coli AG100
How it was run: as §1

E. coli D22 = details: Escherichia coli; E. coli D22 (hyper-permeable); MHB; read-out: Minimum Inhibitory Concentration, E. coli D22
How it was run: as §1

[1] = system: K. pneumoniae 848844 producing SHV-11 and KPC-2; details: Klebsiella pneumoniae, read-out: Minimum Inhibitory Concentration, K. pneumoniae 848844
How it was run: as §1

E. coli AG100A = details: Escherichia coli, read-out: Minimum Inhibitory Concentration, E. coli AG100A
How it was run: as §1

A. baumannii ATCC 19606 = details: Acinetobacter baumannii, ATCC19606; MHB; read-out: Minimum Inhibitory Concentration, A. baumannii ATCC 19606
How it was run: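 Lowest compound concentration with no visible growth after 16-20 h at 37 °C defines MIC. Plates of 2-fold serial dilutions in cation-adjusted Mueller Hinton broth received 2-8×10^5 CFU/mL of exponentially grown cells, per CLSI methods; panel spans reference, hyper-permeable and efflux-pump-deleted strains.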

E. coli ATCC 25922 = details: Escherichia coli, ATCC25922; E. coli ATCC 25922; MHB; read-out: Minimum Inhibitory Concentration, E. coli 25922
How it was run: as §1

[2] = system: K. pneumoniae UMM producing SHV-5 and KPC-2; details: Klebsiella pneumoniae, read-out: Minimum Inhibitory Concentration, K. pneumoniae UMM
How it was run: as §1

[3] = system: K. pneumoniae SI-117 producing VIM-1; details: Klebsiella pneumoniae, read-out: Minimum Inhibitory Concentration, K. pneumoniae SI-117
How it was run: as §1

P. aeruginosa ATCC 27853 = details: Pseudomonas aeruginosa, ATCC27853; MHB; read-out: Minimum Inhibitory Concentration, P. aeruginosa ATCC 27853
How it was run: as §1

P. aeruginosa ATCC 35151 = details: Pseudomonas aeruginosa, ATCC35151; MHB; hyper-permeable strain; read-out: Minimum Inhibitory Concentration, P. aeruginosa ATCC 35151
How it was run: as §1

[4] = system: P. aeruginosa (ΔmexAB-oprM); details: Pseudomonas aeruginosa, read-out: Minimum Inhibitory Concentration, P. aeruginosa ΔmexAB-OprM
How it was run: as §1

Row | Structure (SMILES) | MIC (E. coli 901C) | MIC (E. coli AG100) | MIC (E. coli D22) | MIC [1] | MIC (E. coli AG100A) | MIC (A. baumannii ATCC 19606) | MIC (E. coli ATCC 25922) | MIC [2] | MIC [3] | MIC (P. aeruginosa ATCC 27853) | MIC (P. aeruginosa ATCC 35151) | MIC [4]
1 | CCN1CCN(C(=O)NC(C(=O)N[C@H]2Cc3cccc(C(=O)O)c3OB2O)c2cc(F)c(O)c(Cl)c2)C(=O)C1=O (stereo partly drawn) [Example 164, (3R)-3-(2-(3-chloro-5-fluoro-4-hydroxyphenyl)-2-(4-ethyl-2,3-dioxopiperazine-1-carboxamido)acetamido)-2-hydroxy-3,4-dihydro-2H-benzo[e][1,2]oxaborinine-8-carboxylic acid] | < 0.25 µg/mL | 32 to 64 µg/mL (≈ 55.5 to 111 µM) | 2 to 4 µg/mL (≈ 3.47 to 6.94 µM) | > 128 µg/mL | 2 to 4 µg/mL (≈ 3.47 to 6.94 µM) | > 128 µg/mL | 32 to 64 µg/mL (≈ 55.5 to 111 µM) | 32 to 64 µg/mL (≈ 55.5 to 111 µM) | > 128 µg/mL | > 128 µg/mL | < 0.25 µg/mL | 2 to 4 µg/mL (≈ 3.47 to 6.94 µM)
2 | CCN1CCN(C(=O)NC(C(=O)N[C@H]2Cc3cccc(C(=O)O)c3OB2O)c2cc(Cl)c(O)c(Cl)c2)C(=O)C1=O (stereo partly drawn) [Example 171, (3R)-3-(2-(3,5-dichloro-4-hydroxyphenyl)-2-(4-ethyl-2,3-dioxopiperazine-1-carboxamido)acetamido)-2-hydroxy-3,4-dihydro-2H-benzo[e][1,2]oxaborinine-8-carboxylic acid] | < 0.25 µg/mL | 32 to 64 µg/mL (≈ 53.9 to 108 µM) | 2 to 4 µg/mL (≈ 3.37 to 6.74 µM) | > 128 µg/mL | 2 to 4 µg/mL (≈ 3.37 to 6.74 µM) | > 128 µg/mL | 32 to 64 µg/mL (≈ 53.9 to 108 µM) | 32 to 64 µg/mL (≈ 53.9 to 108 µM) | > 128 µg/mL | > 128 µg/mL | < 0.25 µg/mL | 2 to 4 µg/mL (≈ 3.37 to 6.74 µM)
3 | CCN1CCN(C(=O)NC(C(=O)N[C@H]2Cc3cccc(C(=O)O)c3OB2O)c2cc(F)c(O)c(F)c2F)C(=O)C1=O (stereo partly drawn) [Example 172, (3R)-3-(2-(4-ethyl-2,3-dioxopiperazine-1-carboxamido)-2-(2,3,5-trifluoro-4-hydroxyphenyl)acetamido)-2-hydroxy-3,4-dihydro-2H-benzo[e][1,2]oxaborinine-8-carboxylic acid] | < 0.25 µg/mL | 8 to 16 µg/mL (≈ 13.8 to 27.7 µM) | 2 to 4 µg/mL (≈ 3.46 to 6.92 µM) | > 128 µg/mL | 2 to 4 µg/mL (≈ 3.46 to 6.92 µM) | > 128 µg/mL | 32 to 64 µg/mL (≈ 55.3 to 111 µM) | 32 to 64 µg/mL (≈ 55.3 to 111 µM) | > 128 µg/mL | > 128 µg/mL | < 0.25 µg/mL | 2 to 4 µg/mL (≈ 3.46 to 6.92 µM)
4 | CCN1CCN(C(=O)NC(C(=O)N[C@H]2Cc3cccc(C(=O)O)c3OB2O)c2ccc(O)c(F)c2F)C(=O)C1=O (stereo partly drawn) [Example 173] | < 0.25 µg/mL | 8 to 16 µg/mL (≈ 14.3 to 28.6 µM) | 2 to 4 µg/mL (≈ 3.57 to 7.14 µM) | > 128 µg/mL | 2 to 4 µg/mL (≈ 3.57 to 7.14 µM) | > 128 µg/mL | 8 to 16 µg/mL (≈ 14.3 to 28.6 µM) | 32 to 64 µg/mL (≈ 57.1 to 114 µM) | 32 to 64 µg/mL (≈ 57.1 to 114 µM) | > 128 µg/mL | 0.5 to 1 µg/mL (≈ 0.892 to 1.78 µM) | 2 to 4 µg/mL (≈ 3.57 to 7.14 µM)
5 | NCCN1CCN(C(=O)NC(C(=O)N[C@H]2Cc3cccc(C(=O)O)c3OB2O)c2c(F)c(F)c(O)c(F)c2F)C(=O)C1=O (stereo partly drawn) [Example 174, (3R)-3-(2-(4-(2-aminoethyl)-2,3-dioxopiperazine-1-carboxamido)-2-(2,3,5,6-tetrafluoro-4-hydroxyphenyl)acetamido)-2-hydroxy-3,4-dihydro-2H-benzo[e][1,2]oxaborinine-8-carboxylic acid] | 0.5 to 1 µg/mL (≈ 0.818 to 1.64 µM) | 8 to 16 µg/mL (≈ 13.1 to 26.2 µM) | 2 to 4 µg/mL (≈ 3.27 to 6.54 µM) | > 128 µg/mL | 2 to 4 µg/mL (≈ 3.27 to 6.54 µM) | > 128 µg/mL | 32 to 64 µg/mL (≈ 52.4 to 105 µM) | 32 to 64 µg/mL (≈ 52.4 to 105 µM) | > 128 µg/mL | > 128 µg/mL | 0.5 to 1 µg/mL (≈ 0.818 to 1.64 µM) | 8 to 16 µg/mL (≈ 13.1 to 26.2 µM)
6 | CCN1CCN(C(=O)NC(C(=O)N[C@H]2Cc3cccc(C(=O)O)c3OB2O)c2c(F)c(F)c(O)c(F)c2F)C(=O)C1=O (stereo partly drawn) [Example 175, (3R)-3-(2-(4-ethyl-2,3-dioxopiperazine-1-carboxamido)-2-(2,3,5,6-tetrafluoro-4-hydroxyphenyl)acetamido)-2-hydroxy-3,4-dihydro-2H-benzo[e][1,2]oxaborinine-8-carboxylic acid] | < 0.25 µg/mL | 8 to 16 µg/mL (≈ 13.4 to 26.8 µM) | 2 to 4 µg/mL (≈ 3.35 to 6.71 µM) | > 128 µg/mL | 2 to 4 µg/mL (≈ 3.35 to 6.71 µM) | 32 to 64 µg/mL (≈ 53.7 to 107 µM) | 32 to 64 µg/mL (≈ 53.7 to 107 µM) | 32 to 64 µg/mL (≈ 53.7 to 107 µM) | > 128 µg/mL | > 128 µg/mL | 0.5 to 1 µg/mL (≈ 0.839 to 1.68 µM) | 8 to 16 µg/mL (≈ 13.4 to 26.8 µM)
